According to patent US5902812A, “Pharmaceutical piperazine compounds” (Xenova Limited, priority 1994, dated 1999):
Structures can show the parent of a compound that is named as a salt. Where two headings read alike, the source gives them in different places. Each block holds one compound with its values, some of them ahead of it.

Molecular target: PAI-1 (Homo sapiens, UniProt P05121)
Experiment: biochemical
Settings: for inhibition at 100 µM / inhibition at 6.25 µM / inhibition at 12.5 µM / inhibition at 25 µM / inhibition at 50 µM / inhibition at 20 µM: read-out: Degree of inhibition in PAI chromogenic substrate assay
[1] = PAI chromogenic substrate assay, read-out: IC50

Sequence of PAI-1 (P05121 24-402): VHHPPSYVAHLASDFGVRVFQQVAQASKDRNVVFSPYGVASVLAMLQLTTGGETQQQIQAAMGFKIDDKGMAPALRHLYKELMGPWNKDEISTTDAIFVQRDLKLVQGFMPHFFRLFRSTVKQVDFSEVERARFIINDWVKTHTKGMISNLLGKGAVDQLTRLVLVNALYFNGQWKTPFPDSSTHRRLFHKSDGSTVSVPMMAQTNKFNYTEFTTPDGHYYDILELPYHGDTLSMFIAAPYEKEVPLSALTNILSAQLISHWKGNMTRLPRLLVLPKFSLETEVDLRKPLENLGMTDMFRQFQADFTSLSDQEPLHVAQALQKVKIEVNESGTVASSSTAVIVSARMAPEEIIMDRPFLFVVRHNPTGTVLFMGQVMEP
Experimental: In this assay, a compound is incubated with PAI-1 prior to addition to the tPA assay system. Inhibition of PAI-1 results in the production of plasmin from plasminogen. In turn, plasmin cleaves the chromogenic substrate S2251 (Kabi Vitrum) producing pNA (p-nitroaniline) which is detected spectrophotometrically at 405 nm (K. Nilsson et al, Fibrinolysis (1987) 1, 163-168).
Compounds of formula (A) were tested in a PAI chromogenic substrate assay. In the assay (K.Nilsson, Fibrinolysis (1987) 1, 163-168) each compound was incubated with PAI-1 prior to addition to the tPA assay system. […] In turn, the plasmin cleaved the chromogenic substrate S2251 (Kabi-Vitrum) producing pNA (p-nitroaniline) which was detected spectrophotometrically at 405 nm.

Structure (SMILES): CC(C)(C)CC(=O)Oc1ccc(/C=c2\[nH]c(=O)/c(=C/c3ccccc3)[nH]c2=O)cc1 [Compound 1889, (3Z,6Z)-6-Benzylidene-3-(4-(3,3-dimethylbutanoyloxy)benzylidene)-2,5-piperazinedione]
inhibition at 6.25 µM (6.25 μM): 0%
inhibition at 12.5 µM (12.5 μM): 3%
inhibition at 25 µM (25 μM): 15%
inhibition at 50 µM (50 μM): 38%
inhibition at 100 µM (100 μM): 49%

Structure (SMILES): CN(C)Cc1ccc(/C=c2\[nH]c(=O)/c(=C/c3ccccc3)[nH]c2=O)cc1 [Compound 1913, (3Z,6Z)-3-Benzylidene-6-(4-dimethylaminomethylbenzylidene)-2,5-piperazinedione]
inhibition at 6.25 µM (6.25 μM): 15%
inhibition at 12.5 µM (12.5 μM): 14%
inhibition at 25 µM (25 μM): 19%
inhibition at 50 µM (50 μM): 54%
inhibition at 100 µM (100 μM): 71%

Structure (SMILES): CN(C)CCCOc1ccc(/C=c2\[nH]c(=O)/c(=C/c3ccc([N+](=O)[O-])cc3)[nH]c2=O)cc1 [Compound 5230, (3Z,6Z)-3-(4-(3-dimethylaminopropoxy)benzylidene)-6-(4-nitrobenzylidene)-2,5-piperazinedione]
inhibition at 20 µM (20 μM (third part of Table 1)): 30%
inhibition at 100 µM (100 μM (third part of Table 1)): 9%
IC50 [1]: 0.75 µM

Structure (SMILES): CN(C)CCCOc1ccc(/C=c2\[nH]c(=O)/c(=C/c3cccc(Cl)c3)[nH]c2=O)cc1 [Compound 5237]
inhibition at 20 µM (20 μM (third part of Table 1)): 72%
Degree of inhibition in PAI chromogenic substrate assay (100 μM (third part of Table 1), 100 µM): 67%
IC50 [1]: 4 µM

Structure (SMILES): CN(C)CCCOc1ccc(/C=c2\[nH]c(=O)/c(=C/c3ccc(C(=O)NCCCc4ccccc4)cc3)[nH]c2=O)cc1 [Compound 5346, N-(3-Phenylpropyl)-4-((3Z,6Z)-6-(4-(3-Dimethylaminopropoxy)benzylidene)-2,5-dioxo-3-piperazinylidene)methylbenzamide]
inhibition at 20 µM (20 μM (third part of Table 1)): 15%

Structure (SMILES): CN(C)CCCOc1ccc(/C=c2\[nH]c(=O)/c(=C/c3cc([N+](=O)[O-])cc([N+](=O)[O-])c3)[nH]c2=O)cc1 [Compound 5381, (3Z,6Z)-6-(4-(3-Dimethylaminopropoxy)benzylidene)-3-(3,5-dinitrobenzylidene)-2,5-piperazinedione]
IC50 (IC50, PAI chromogenic substrate assay): 15 µM

Structure (SMILES): CN(C)CCCOc1ccc(/C=c2\[nH]c(=O)/c(=C/c3ccc(F)cc3)[nH]c2=O)cc1 [Compound 5365.HCl, (3Z,6Z)-3-(4-(3-Dimethylaminopropoxy)benzylidene)-6-(4-fluorobenzylidene)-2,5-piperazinedione]
IC50 [1]: 3.3 µM

Structure (SMILES): CN(C)CCCOc1ccc(/C=c2\[nH]c(=O)/c(=C/c3ccc(Br)cc3)[nH]c2=O)cc1 [Compound 5360]
inhibition at 20 µM (20 μM (third part of Table 1)): 59%
IC50 [1]: 3.5 µM

Structure (SMILES): CN(C)CCOc1ccc(/C=c2\[nH]c(=O)/c(=C/c3ccccc3)[nH]c2=O)cc1 [Compound 1908, (3Z,6Z)-3-Benzylidene-6-(4-(2-dimethylaminoethoxy)benzylidene)-2,5-piperazinedione]
Degree of inhibition in PAI chromogenic substrate assay (6.25 μM): 12%
Degree of inhibition in PAI chromogenic substrate assay (12.5 μM): 29%
Degree of inhibition in PAI chromogenic substrate assay (25 μM): 66%
Degree of inhibition in PAI chromogenic substrate assay (50 μM): 69%
Degree of inhibition in PAI chromogenic substrate assay (100 μM): 74%

Structure (SMILES): CN(C)CCCOc1ccc(/C=c2\[nH]c(=O)/c(=C/c3ccccc3Br)[nH]c2=O)cc1 [Compound 5060.HCl, (3Z,6Z)-3-(2-Bromobenzylidene)-6-(4-(3-dimethylaminopropoxy)benzylidene)-2,5-piperazinedione]
inhibition at 20 µM (20 μM (third part of Table 1)): 52%
inhibition at 50 µM (50 μM (third part of Table 1)): 65%
inhibition at 100 µM (100 μM (third part of Table 1)): 75%

Structure (SMILES): CN(C)CCCOc1ccc(/C=c2\[nH]c(=O)/c(=C/c3ccc(C(=O)NCCCCc4ccccc4)cc3)[nH]c2=O)cc1 [Compound 5347, N-(4-Phenylbutyl)-4-((3Z,6Z)-6-(4-(3-Dimethylaminopropoxy)benzylidene)-2,5-dioxo-3-piperazinylidene)methylbenzamide]
inhibition at 20 µM (20 μM (third part of Table 1)): 39%

Structure (SMILES): CN(C)CCCOc1ccc(/C=c2\[nH]c(=O)/c(=C/c3ccc4c(c3)OCO4)[nH]c2=O)cc1 [Compound 5229, (3Z,6Z)-6-(4-(3-Dimethylaminopropoxy)benzylidene)-3-(3,4-methylenedioxybenzylidene)-2,5-piperazinedione]
IC50 [1]: 3.7 µM

Structure (SMILES): CN(C)CCCOc1ccc(/C=c2\[nH]c(=O)/c(=C/c3ccc([N+](=O)[O-])cc3)[nH]c2=O)cc1 [Compound 5228, (3Z,6Z)-3-(4-(3-dimethylaminopropoxy)benzylidene)-6-(4-nitrobenzylidene)-2,5-piperazinedione]
IC50 [1]: 1.1 µM

Structure (SMILES): CCCCOc1ccc(/C=c2\[nH]c(=O)/c(=C/c3ccc(OCCCN(C)C)cc3)[nH]c2=O)cc1 [Compound 5250]
inhibition at 20 µM (20 μM (third part of Table 1)): 10%
inhibition at 100 µM (100 μM (third part of Table 1)): 25%
IC50 [1]: 14 µM

Structure (SMILES): COc1ccccc1/C=c1\[nH]c(=O)/c(=C/c2ccc(OCCCN(C)C)cc2)[nH]c1=O [Compound 5241, (3Z,6Z)-6-(4-(3-Dimethylaminopropoxy)benzylidene)-3-(2-methoxybenzylidene)-2,5-piperazinedione]
inhibition at 20 µM (20 μM (third part of Table 1)): 1%
inhibition at 100 µM (100 μM (third part of Table 1)): 21%

Structure (SMILES): CN(C)CCCOc1ccc(/C=c2\[nH]c(=O)/c(=C/c3ccccc3C(F)(F)F)[nH]c2=O)cc1 [Compound 5251, (3Z,6Z)-6-(4-(3-Dimethylaminopropoxy)benzylidene)-3-(2-trifluoromethylbenzylidene)-2,5-piperazinedione]
inhibition at 100 µM (100 μM (third part of Table 1)): 71%
IC50 [1]: 67 µM

Results, then the compound that gave them:

Degree of inhibition in PAI chromogenic substrate assay (6.25 μM): 0%
Degree of inhibition in PAI chromogenic substrate assay (12.5 μM): 1%
Degree of inhibition in PAI chromogenic substrate assay (25 μM): 2%
Degree of inhibition in PAI chromogenic substrate assay (50 μM): 23%
Degree of inhibition in PAI chromogenic substrate assay (100 μM): 43%
Structure (SMILES): CN(C)CCOc1ccc(/C=c2\[nH]c(=O)/c(=C/c3ccccc3)[nH]c2=O)c(Cl)c1 [Compound 1951, (3Z,6Z)-3-Benzylidene-6-(2-chloro-4-(2-dimethylaminoethoxy)benzylidene)-2,5-piperazinedione]

inhibition at 100 µM (100 μM (third part of Table 1)): 10%
Structure (SMILES): COc1ccc(/C=c2\[nH]c(=O)/c(=C/c3ccc(OCCCN(C)C)cc3)[nH]c2=O)cc1 [Compound 5234, (3Z,6Z)-3-(4-(3-Dimethylaminopropoxy)benzylidene)-6-(4-methoxybenzylidene)-2,5-piperazinedione]

Degree of inhibition in PAI chromogenic substrate assay (20 μM (third part of Table 1), 20 µM): 76%
inhibition at 100 µM (100 μM (third part of Table 1)): 79%
IC50 [1]: 35 µM
Structure (SMILES): CN(C)CCCOc1ccc(/C=c2\[nH]c(=O)/c(=C/c3ccc(C(N)=O)cc3)[nH]c2=O)cc1 [Compound 5254, 4-((3Z,6Z)-6-(4-(3-Dimethylaminopropoxy)benzylidene)-2,5-dioxo-3-piperazinylidene)methylbenzamide]

IC50 [1]: 2 µM
Structure (SMILES): CSc1ccc(/C=c2\[nH]c(=O)/c(=C/c3ccc(OCCCN(C)C)cc3)[nH]c2=O)cc1 [Compound 5385, (3Z,6Z)-3-(4-(3-Dimethylaminopropoxy)benzylidene)-6-(4-methylthiobenzylidene)-2,5-piperazinedione]

inhibition at 6.25 µM (6.25 μM): 10%
inhibition at 12.5 µM (12.5 μM): 23%
inhibition at 25 µM (25 μM): 37%
inhibition at 50 µM (50 μM): 69%
inhibition at 100 µM (100 μM): 80%
Structure (SMILES): CCCCCCOc1ccc(/C=c2\[nH]c(=O)/c(=C/c3ccc(OC)cc3)[nH]c2=O)cc1 [Compound 1907, (3Z,6Z)-3-(4-Hexyloxybenzylidene)-6-(4-methoxybenzylidene)-2,5-piperazinedione]

Degree of inhibition in PAI chromogenic substrate assay (12.5 μM): 7%
Degree of inhibition in PAI chromogenic substrate assay (25 μM): 26%
Degree of inhibition in PAI chromogenic substrate assay (50 μM): 41%
Degree of inhibition in PAI chromogenic substrate assay (100 μM): 51%
Structure (SMILES): CN(C)CCCN(CCCN(C)C)Cc1ccc(/C=c2\[nH]c(=O)/c(=C/c3ccccc3)[nH]c2=O)cc1 [Compound 1981, (3Z,6Z)-3-Benzylidene-6-(4-bis(3-dimethylaminopropyl)aminomethylbenzylidene)-2,5-piperazinedione]

Degree of inhibition in PAI chromogenic substrate assay (12.5 μM): 0%
Degree of inhibition in PAI chromogenic substrate assay (25 μM): 0%
Degree of inhibition in PAI chromogenic substrate assay (50 μM): 0%
Degree of inhibition in PAI chromogenic substrate assay (100 μM): 17%
Structure (SMILES): CN(C)CCOc1ccc(/C=c2\[nH]c(=O)/c(=C/c3ccccc3)[nH]c2=O)c(OCCN(C)C)c1 [Compound 1984]

IC50 [1]: 6 µM
Structure (SMILES): Cc1ccc(/C=c2\[nH]c(=O)/c(=C/c3ccc(OCCCN(C)C)cc3)[nH]c2=O)cc1 [Compound 5235, (3Z,6Z)-3-(4-(3-Dimethylaminopropoxy)benzylidene)-6-(4-methylbenzylidene)-2,5-piperazinedione]

inhibition at 20 µM (20 μM (third part of Table 1)): 75%
inhibition at 50 µM (50 μM (third part of Table 1)): 68%
inhibition at 100 µM (100 μM (third part of Table 1)): 67%
Structure (SMILES): CN(C)CCSCc1ccc(/C=c2\[nH]c(=O)/c(=C/c3ccccc3)[nH]c2=O)cc1 [Compound 5058, (3Z,6Z)-6-Benzylidene-3-(4-(2-Dimethylaminoethylthiomethyl)benzylidene)-2,5-piperazinedione]

IC50 [1]: 2.8 µM
Structure (SMILES): CN(C)CCCOc1ccc(/C=c2\[nH]c(=O)/c(=C/c3ccc(Cl)c(Cl)c3)[nH]c2=O)cc1 [Compound 5236]

IC50 [1]: 67 µM
Structure (SMILES): CN(C)CCCOc1ccc(/C=c2\[nH]c(=O)/c(=C/c3ccccc3[N+](=O)[O-])[nH]c2=O)cc1 [Compound 5210, (3Z,6Z)-6-(4-(3-Dimethylaminopropoxy)benzylidene)-3-(2-nitrobenzylidene)-2,5-piperazinedione]

inhibition at 20 µM (20 μM (third part of Table 1)): 3%
inhibition at 100 µM (100 μM (third part of Table 1)): 36%
Structure (SMILES): CN(C)CCCOc1ccc(/C=c2\[nH]c(=O)/c(=C/c3ccc(C(C)(C)C)cc3)[nH]c2=O)cc1 [Compound 5238, (3Z,6Z)-3-(4-(3-Dimethylaminopropoxy)benzylidene)-6-(4-tert-butylbenzylidene)-2,5-piperazinedione]

inhibition at 20 µM (20 μM (third part of Table 1)): 40%
Structure (SMILES): CN(C)CCCOc1ccc(/C=c2\[nH]c(=O)/c(=C/c3ccc(C(=O)NCc4ccccc4)cc3)[nH]c2=O)cc1 [Compound 5344, N-Benzyl-4-((3Z,6Z)-6-(4-(3-Dimethylaminopropoxy)benzylidene)-2,5-dioxo-3-piperazinylidene)methylbenzamide]
